Key:
MV-4-11 xenograft = experiment: Anti-tumor efficacy in subcutaneous MV-4-11 xenograft model; type: in vivo, female BALB/c nude mice; details: i.v.; GFH009 maleate 2.5, 5.0, 10.0 mg/kg QW or BIW; enitociclib 10.0 mg/kg QW; 3 weeks
Experimental: Figure 6 Anti-tumor efficacy of GFH009 in MV-4-11 xenograft model. MV-4-11 xenograft in female BALB/c nude mice were treated with GFH009 or enitociclib at the indicated doses (n = 8 mice per group). Results are expressed as mean ± SEM. ^* P < 0.05, ^**** P < 0.0001, two-way ANOVA with Dunnett’s multiple comparisons test analysis compared to Vehicle control group.
In vivo studies of tumor suppression were conducted in female BALB/c nude mice (Beijing Vital River Laboratory Animal Technology Co, Ltd., Changping, Beijing, China) bearing MV-4-11 xenografts (ATCC, Rockville, MD, USA). Each mouse was inoculated subcutaneously into the right dorsal-region with 5.0 × 10^6 cultured MV-4-11 cells in a total volume of 0.2 ml solution and allowed to develop xenograft tumors. Once tumor size had reached […], mice were divided into groups to receive 1 of 8 different treatment preparations dosed intravenously via the tail vein (Table 2). […] Enitociclib was administered as a 1.0 mg/mL solution in ultrapure water with 5% DMSO. Vehicle control was 50 mM PBS with no dissolved treatment drug.
(§1) Animals dosed BIW were given treatments on 2 consecutive days. Weights were recorded for each mouse every day and tumor volumes assessed 3 times a week. Total treatment administration occurred across 3 consecutive weeks.
Subcutaneous tumor volume (TV) was calculated as TV = (L × W^2)/2, where L was the length and W was the width of the tumor [11]. […] TGI was calculated as TGI (%) = (1 – avTi-0/ avCi-0)) × 100, where avTi-0 is the mean TV of the treatment group on a given day minus the mean TV of this treatment group on the day of group assignment, and avCi-0 is the mean TV of the vehicle control group on a given day minus the mean TV of the vehicle control group on the day of group assignment.
Tumor volume data was subjected to a base-10 logarithmic transformation and subsequent comparisons of TV across groups was made using two-way ANOVA (Dunnett’s multiple comparisons test). All plotting and statistical analyses were conducted using GraphPad Prism 6.00 (GraphPad Software).

[1] = Body weight change in MV-4-11 xenograft mice; type: in vivo, female BALB/c nude mice; details: GFH009 maleate QW or BIW; enitociclib 10.0 mg/kg QW; i.v.
Experimental: Figure 7 Effect of GFH009 on body weight change in MV-4-11 xenografts. Body weight change of MV-4-11 xenograft (Figure 6) are expressed as mean ± SEM. ^* […], ^** P < 0.01, ^**** P < 0.0001, two-way ANOVA with Dunnett’s multiple comparisons test analysis compared to the vehicle-treated (control) group.
as §1
Relative change in body weight (RCBW) was determined as RCBW (%) = (Bwi – BW0)/BW0 × 100, where Bwi is body weight of a given mouse on a given day, and BW0 is initial body weight on the day they were assigned to a treatment group.

## COc1cc(F)ccc1-c1cc(Nc2cc(CS(C)(=N)=O)ccn2)ncc1F (centres unmarked) [enitociclib, reference compound]
MV-4-11 xenograft
  Tumor growth (total volume) compared to the vehicle control: inhibited tumor growth
[1]
  Body weight of the mice during the administration period: decreased dramatically
